In ChEMBL document CHEMBL5724914, “Linking interpersonal differences in gut microbiota composition and drug biotransformation activity” (2024):

experiment: (§1) The drug is tested on Z-021 corresponding to metagenome with ENA study accession number: PRJEB37062 and ENA sample accession number: ERS12561820 for biotransformation under anaerobic condition. The drug concentrations were measured over 9 timepoints collected between 0 and 24 hours of incubation by liquid-chromatography-coupled mass spectrometry (LC–MS); details: 2 µM
Note: call rule not given here.

Bacterial Biotransformation | Structure (SMILES)
Compound NOT metabolized | CC(C)(C)NC[C@H](O)COc1nsnc1N1CCOCC1.O=C(O)/C=C\C(=O)O [TIMOLOL MALEATE]
Compound NOT metabolized | CC[C@@]1(O)C(=O)OCc2c1cc1n(c2=O)Cc2cc3c(CN(C)C)c(O)ccc3nc2-1 [TOPOTECAN]

experiment: (§2) The drug is tested on Z-019 corresponding to rat gut metagenome with ENA study accession number: PRJEB37062 and ENA sample accession number: ERS12561818 for biotransformation under anaerobic condition. The drug concentrations were measured over 9 timepoints collected between 0 and 24 hours of incubation by liquid-chromatography-coupled mass spectrometry (LC–MS); details: 2 µM

Bacterial Biotransformation | Structure (SMILES)
Compound NOT metabolized | CC(C)(C)NC[C@H](O)COc1nsnc1N1CCOCC1.O=C(O)/C=C\C(=O)O [TIMOLOL MALEATE]
Compound NOT metabolized | CC[C@@]1(O)C(=O)OCc2c1cc1n(c2=O)Cc2cc3c(CN(C)C)c(O)ccc3nc2-1 [TOPOTECAN]

experiment: as §2, with “on Z-018” for “on Z-019”, “to pig” for “to rat”, “number: ERS12561817” for “number: ERS12561818”; details: 2 µM

Bacterial Biotransformation | Structure (SMILES)
Compound NOT metabolized | CC(C)(C)NC[C@H](O)COc1nsnc1N1CCOCC1.O=C(O)/C=C\C(=O)O [TIMOLOL MALEATE]
Compound NOT metabolized | CC[C@@]1(O)C(=O)OCc2c1cc1n(c2=O)Cc2cc3c(CN(C)C)c(O)ccc3nc2-1 [TOPOTECAN]

experiment: as §2, with “on Z-017” for “on Z-019”, “to mouse” for “to rat”, “number: ERS12561816” for “number: ERS12561818”; details: 2 µM

Bacterial Biotransformation | Structure (SMILES)
Compound NOT metabolized | CC(C)(C)NC[C@H](O)COc1nsnc1N1CCOCC1.O=C(O)/C=C\C(=O)O [TIMOLOL MALEATE]
Compound NOT metabolized | CC[C@@]1(O)C(=O)OCc2c1cc1n(c2=O)Cc2cc3c(CN(C)C)c(O)ccc3nc2-1 [TOPOTECAN]

experiment: as §2, with “Z-014” for “Z-019”, “ERS12561814” for “ERS12561818”; details: 2 µM

Bacterial Biotransformation | Structure (SMILES)
Compound NOT metabolized | CC(C)(C)NC[C@H](O)COc1nsnc1N1CCOCC1.O=C(O)/C=C\C(=O)O [TIMOLOL MALEATE]
Compound NOT metabolized | CC[C@@]1(O)C(=O)OCc2c1cc1n(c2=O)Cc2cc3c(CN(C)C)c(O)ccc3nc2-1 [TOPOTECAN]

experiment: as §1, with “Z-010” for “Z-021”, “ERS12561810” for “ERS12561820”; details: 2 µM

Bacterial Biotransformation | Structure (SMILES)
Compound NOT metabolized | CC(C)(C)NC[C@H](O)COc1nsnc1N1CCOCC1.O=C(O)/C=C\C(=O)O [TIMOLOL MALEATE]
Compound NOT metabolized | CC[C@@]1(O)C(=O)OCc2c1cc1n(c2=O)Cc2cc3c(CN(C)C)c(O)ccc3nc2-1 [TOPOTECAN]

experiment: as §1, with “Z-005” for “Z-021”, “ERS12561805” for “ERS12561820”; details: 2 µM

Bacterial Biotransformation | Structure (SMILES)
Compound NOT metabolized | CC(C)(C)NC[C@H](O)COc1nsnc1N1CCOCC1.O=C(O)/C=C\C(=O)O [TIMOLOL MALEATE]
Compound NOT metabolized | CC[C@@]1(O)C(=O)OCc2c1cc1n(c2=O)Cc2cc3c(CN(C)C)c(O)ccc3nc2-1 [TOPOTECAN]

experiment: as §2, with “on Z-001” for “on Z-019”, “to mouse” for “to rat”, “number: ERS12561801” for “number: ERS12561818”; details: 2 µM

Bacterial Biotransformation | Structure (SMILES)
Compound NOT metabolized | CC(C)(C)NC[C@H](O)COc1nsnc1N1CCOCC1.O=C(O)/C=C\C(=O)O [TIMOLOL MALEATE]
Compound NOT metabolized | CC[C@@]1(O)C(=O)OCc2c1cc1n(c2=O)Cc2cc3c(CN(C)C)c(O)ccc3nc2-1 [TOPOTECAN]

experiment: as §2, with “on WLS-170” for “on Z-019”, “to human” for “to rat”, “number: ERS12561762” for “number: ERS12561818”; details: 2 µM

Bacterial Biotransformation | Structure (SMILES)
Compound NOT metabolized | CC(C)(C)NC[C@H](O)COc1nsnc1N1CCOCC1.O=C(O)/C=C\C(=O)O [TIMOLOL MALEATE]
Compound NOT metabolized | CC[C@@]1(O)C(=O)OCc2c1cc1n(c2=O)Cc2cc3c(CN(C)C)c(O)ccc3nc2-1 [TOPOTECAN]

experiment: as §2, with “on WLS-090” for “on Z-019”, “to human” for “to rat”, “number: ERS12561753” for “number: ERS12561818”; details: 2 µM

Bacterial Biotransformation | Structure (SMILES)
Compound NOT metabolized | CC(C)(C)NC[C@H](O)COc1nsnc1N1CCOCC1.O=C(O)/C=C\C(=O)O [TIMOLOL MALEATE]
Compound NOT metabolized | CC[C@@]1(O)C(=O)OCc2c1cc1n(c2=O)Cc2cc3c(CN(C)C)c(O)ccc3nc2-1 [TOPOTECAN]

experiment: as §2, with “on WLS-086” for “on Z-019”, “to human” for “to rat”, “number: ERS12561752” for “number: ERS12561818”; details: 2 µM

Bacterial Biotransformation | Structure (SMILES)
Compound NOT metabolized | CC(C)(C)NC[C@H](O)COc1nsnc1N1CCOCC1.O=C(O)/C=C\C(=O)O [TIMOLOL MALEATE]
Compound NOT metabolized | CC[C@@]1(O)C(=O)OCc2c1cc1n(c2=O)Cc2cc3c(CN(C)C)c(O)ccc3nc2-1 [TOPOTECAN]

experiment: as §2, with “on WLS-082” for “on Z-019”, “to human” for “to rat”, “number: ERS12561751” for “number: ERS12561818”; details: 2 µM

Bacterial Biotransformation | Structure (SMILES)
Compound NOT metabolized | CC(C)(C)NC[C@H](O)COc1nsnc1N1CCOCC1.O=C(O)/C=C\C(=O)O [TIMOLOL MALEATE]
Compound NOT metabolized | CC[C@@]1(O)C(=O)OCc2c1cc1n(c2=O)Cc2cc3c(CN(C)C)c(O)ccc3nc2-1 [TOPOTECAN]

experiment: as §2, with “on WLS-039” for “on Z-019”, “to human” for “to rat”, “number: ERS12561746” for “number: ERS12561818”; details: 2 µM

Bacterial Biotransformation | Structure (SMILES)
Compound NOT metabolized | CC(C)(C)NC[C@H](O)COc1nsnc1N1CCOCC1.O=C(O)/C=C\C(=O)O [TIMOLOL MALEATE]
Compound NOT metabolized | CC[C@@]1(O)C(=O)OCc2c1cc1n(c2=O)Cc2cc3c(CN(C)C)c(O)ccc3nc2-1 [TOPOTECAN]

experiment: as §2, with “on WLS-027” for “on Z-019”, “to human” for “to rat”, “number: ERS12561744” for “number: ERS12561818”; details: 2 µM

Bacterial Biotransformation | Structure (SMILES)
Compound NOT metabolized | CC(C)(C)NC[C@H](O)COc1nsnc1N1CCOCC1.O=C(O)/C=C\C(=O)O [TIMOLOL MALEATE]
Compound NOT metabolized | CC[C@@]1(O)C(=O)OCc2c1cc1n(c2=O)Cc2cc3c(CN(C)C)c(O)ccc3nc2-1 [TOPOTECAN]

details: human gut metagenome, 24 h, 2 µM

Bacterial Biotransformation | Structure (SMILES)
Compound NOT metabolized | CC(C)(C)NC[C@H](O)COc1nsnc1N1CCOCC1.O=C(O)/C=C\C(=O)O [TIMOLOL MALEATE]
Compound NOT metabolized | CC[C@@]1(O)C(=O)OCc2c1cc1n(c2=O)Cc2cc3c(CN(C)C)c(O)ccc3nc2-1 [TOPOTECAN]

details: human gut metagenome, 24 h, 2 µM; remark: another data set of the same source

Bacterial Biotransformation | Structure (SMILES)
Compound NOT metabolized | CC(C)(C)NC[C@H](O)COc1nsnc1N1CCOCC1.O=C(O)/C=C\C(=O)O [TIMOLOL MALEATE]
Compound NOT metabolized | CC[C@@]1(O)C(=O)OCc2c1cc1n(c2=O)Cc2cc3c(CN(C)C)c(O)ccc3nc2-1 [TOPOTECAN]

details: human gut metagenome, 24 h, 2 µM; remark: another data set of the same source

Bacterial Biotransformation | Structure (SMILES)
Compound NOT metabolized | CC(C)(C)NC[C@H](O)COc1nsnc1N1CCOCC1.O=C(O)/C=C\C(=O)O [TIMOLOL MALEATE]
Compound NOT metabolized | CC[C@@]1(O)C(=O)OCc2c1cc1n(c2=O)Cc2cc3c(CN(C)C)c(O)ccc3nc2-1 [TOPOTECAN]

details: human gut metagenome, 24 h, 2 µM; remark: another data set of the same source

Bacterial Biotransformation | Structure (SMILES)
Compound NOT metabolized | CC(C)(C)NC[C@H](O)COc1nsnc1N1CCOCC1.O=C(O)/C=C\C(=O)O [TIMOLOL MALEATE]
Compound NOT metabolized | CC[C@@]1(O)C(=O)OCc2c1cc1n(c2=O)Cc2cc3c(CN(C)C)c(O)ccc3nc2-1 [TOPOTECAN]

details: human gut metagenome, 24 h, 2 µM; remark: another data set of the same source

Bacterial Biotransformation | Structure (SMILES)
Compound NOT metabolized | CC(C)(C)NC[C@H](O)COc1nsnc1N1CCOCC1.O=C(O)/C=C\C(=O)O [TIMOLOL MALEATE]
Compound NOT metabolized | CC[C@@]1(O)C(=O)OCc2c1cc1n(c2=O)Cc2cc3c(CN(C)C)c(O)ccc3nc2-1 [TOPOTECAN]

details: human gut metagenome, 24 h, 2 µM; remark: another data set of the same source

Bacterial Biotransformation | Structure (SMILES)
Compound NOT metabolized | CC(C)(C)NC[C@H](O)COc1nsnc1N1CCOCC1.O=C(O)/C=C\C(=O)O [TIMOLOL MALEATE]
Compound NOT metabolized | CC[C@@]1(O)C(=O)OCc2c1cc1n(c2=O)Cc2cc3c(CN(C)C)c(O)ccc3nc2-1 [TOPOTECAN]
